This passage reports IC50 results from US20240148821A1, “PHARMACEUTICAL USE OF CYCLIC PEPTIDE COMPOUND” (CHUGAI SEIYAKU KABUSHIKI KAISHA, priority 2021, published 2024).

Bridge positions count the residues as written; N and C are the ends. Square brackets hold non-standard residues; d marks the D form. Peptide text beside a SMILES is read from it. * marks the point of attachment. hPhe(3-Cl-4-CF3) = N[C@@H](CCc1ccc(C(F)(F)F)c(Cl)c1)C(=O)O; hPhe(3-F,4-CF3) = N[C@@H](CCc1ccc(C(F)(F)F)c(F)c1)C(=O)O; 3Oxa8azabicyclo(3.2.1)octane = C1CC2COCC1N2*; NMePhe(4-F) = CN[C@@H](Cc1ccc(F)cc1)C(=O)O; NMeGly(cPent) = CN[C@H](C(=O)O)C1CCCC1; NMeGly(cBu) = CN[C@H](C(=O)O)C1CCC1; NMeCha = CN[C@@H](CC1CCCCC1)C(=O)O; NMehLeu = CN[C@@H](CCC(C)C)C(=O)O; NMeI = CC[C@H](C)[C@H](NC)C(=O)O; NMeE = CN[C@@H](CCC(=O)O)C(=O)O; Piperidide(4-Me) = CC1CCN(*)CC1; NMeD = CN[C@@H](CC(=O)O)C(=O)O; NMeL = CN[C@@H](CC(C)C)C(=O)O; NMeV = CN[C@H](C(=O)O)C(C)C; NMeS = CN[C@@H](CO)C(=O)O; Morpholide = C1CN(*)CCO1; NMeA = CN[C@@H](C)C(=O)O; Piperidide = C1CCN(*)CC1; Ac5c = NC1(C(=O)O)CCCC1; Aze = O=C(O)[C@@H]1CCN1; Ac4c = NC1(C(=O)O)CCC1; Sar = CNCC(=O)O; Propyl = CCC*

For the test, the target named is protein-protein interaction between Kras and SOS1 (biotin-tagged human Kras loaded with GDP, His-tagged human SOS1) (Homo sapiens (Human), UniProt P01116, G12D). The experiment in a line: Protein-protein interaction inhibition between Kras and SOS1 (KrasG12D-SOS PPI) using AlphaScreen.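 Also: kras produced in E. coli, Ni-coupled donor beads and streptavidin acceptor beads, excitation 680 nm with emission detected at 520–620 nm via singlet oxygen transfer.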 It counts as biochemical. As to conditions: AlphaScreen; biotin-tagged human Kras loaded with GDP, His-tagged human SOS1; read-out: KRAS G12D-SOS PPI IC50. (Bead proximity is the source of the signal in Alpha formats.)
Broadly, the IC50 is the concentration that inhibits the measured activity by half. For the molecule `CC[C@H](C)[C@@H]1NC(=O)[C@H](CC(C)C)N(C)C(=O)C[C@@H](C(=O)N2CCCCC2)N(C)C(=O)[C@H](C2CCC2)N(C)C(=O)C2(CCCC2)NC(=O)[C@@H]2CCCN2C(=O)[C@H](CCc2ccc(C(F)(F)F)c(Cl)c2)NC(=O)CN(C)C(=O)[C@H](CC2CCCCC2)N(C)C(=O)[C@@H]2CCN2C(=O)[C@H](C)N(C)C1=O` [Compound 672] ([NMeL]I[NMeA][Aze][NMeCha][Sar][hPhe(3-Cl-4-CF3)]P[Ac5c][NMeGly(cBu)][NMeD]-Piperidide; lactam N-11), the IC50 was found to be 2.5 nM.

For `CC[C@H](C)[C@@H]1NC(=O)[C@H](CC(C)C)N(C)C(=O)C[C@@H](C(=O)N2CCCCC2)N(C)C(=O)[C@H](C2CCCC2)N(C)C(=O)C2(CCCC2)NC(=O)[C@@H]2CCCN2C(=O)[C@H](CCc2ccc(C(F)(F)F)c(Cl)c2)NC(=O)CN(C)C(=O)[C@H](Cc2ccc(F)cc2)N(C)C(=O)[C@@H]2CCN2C(=O)[C@H](C)N(C)C1=O` [Compound 388] ([NMeL]I[NMeA][Aze][NMePhe(4-F)][Sar][hPhe(3-Cl-4-CF3)]P[Ac5c][NMeGly(cPent)][NMeD]-Piperidide; lactam N-11), the IC50 was 0.5 nM.

Regarding `CC[C@H](C)[C@@H]1NC(=O)[C@H](CC(C)C)N(C)C(=O)C[C@@H](C(=O)N2CCCCC2)N(C)C(=O)[C@H](C(C)C)N(C)C(=O)C2(CCC2)NC(=O)[C@@H]2CCCN2C(=O)[C@H](CCc2ccc(C(F)(F)F)c(Cl)c2)NC(=O)CN(C)C(=O)[C@H](CC2CCCCC2)N(C)C(=O)[C@@H]2CCN2C(=O)[C@H](C)N(C)C1=O` [Compound 1672] ([NMeL]I[NMeA][Aze][NMeCha][Sar][hPhe(3-Cl-4-CF3)]P[Ac4c][NMeV][NMeD]-Piperidide; lactam N-11), the IC50 turned out to be 4.3 nM.

Regarding `CC[C@H](C)[C@@H]1NC(=O)[C@H](CC(C)C)N(C)C(=O)C[C@@H](C(=O)N2CCOCC2)N(C)C(=O)[C@H](C2CCCC2)N(C)C(=O)C2(CCCC2)NC(=O)[C@@H]2CCCN2C(=O)[C@H](CCc2ccc(C(F)(F)F)c(Cl)c2)NC(=O)CN(C)C(=O)[C@H](C2CCCC2)N(C)C(=O)[C@@H]2CCN2C(=O)[C@H](C)NC1=O` [Compound 1309] ([NMeL]IA[Aze][NMeGly(cPent)][Sar][hPhe(3-Cl-4-CF3)]P[Ac5c][NMeGly(cPent)][NMeD]-Morpholide; lactam N-11), the IC50 came to 0.85 nM.

In the case of `CC[C@H](C)[C@@H]1NC(=O)[C@H](CC(C)C)N(C)C(=O)C[C@@H](C(=O)N2CCC(C)CC2)N(C)C(=O)[C@H](C(C)C)N(C)C(=O)C2(CCCC2)NC(=O)[C@@H]2CCCN2C(=O)[C@H](CCc2ccc(C(F)(F)F)c(Cl)c2)NC(=O)CN(C)C(=O)[C@H](CC2CCCCC2)N(C)C(=O)[C@@H]2CCN2C(=O)[C@H](C)N(C)C1=O` [Compound 1291] ([NMeL]I[NMeA][Aze][NMeCha][Sar][hPhe(3-Cl-4-CF3)]P[Ac5c][NMeV][NMeD]-{Piperidide(4-Me)}; lactam N-11), the IC50 came out at 5.4 nM.

With `CC[C@H](C)[C@@H]1NC(=O)[C@H](CC(C)C)N(C)C(=O)C[C@@H](C(=O)N2CCOCC2)N(C)C(=O)[C@H](C2CCCC2)N(C)C(=O)C2(CCCC2)NC(=O)[C@H](CCC(=O)N2CCCCC2)N(C)C(=O)[C@H](CCc2ccc(C(F)(F)F)c(Cl)c2)NC(=O)CN(C)C(=O)[C@H](CC2CCCCC2)N(C)C(=O)[C@@H]2CCN2C(=O)[C@H](C)N(C)C1=O` [Compound 2112] ([NMeL]I[NMeA][Aze][NMeCha][Sar][hPhe(3-Cl-4-CF3)][NMeE](Piperidide)[Ac5c][NMeGly(cPent)][NMeD]-Morpholide; lactam N-11), the concentration for half-maximal inhibition (IC50) is 11 nM.

On to `CCCOC[C@H]1C(=O)N(C)CC(=O)N[C@@H](CCc2ccc(C(F)(F)F)c(Cl)c2)C(=O)N2CCC[C@H]2C(=O)NC2(CCCC2)C(=O)N(C)[C@@H](C2CCCC2)C(=O)N(C)[C@H](C(=O)N2C3CCC2COC3)CC(=O)N(C)[C@@H](CCC(C)C)C(=O)N[C@@H]([C@@H](C)CC)C(=O)N(C)[C@@H](C)C(=O)N2CC[C@H]2C(=O)N1C` [Compound 1154] ([NMehLeu]I[NMeA][Aze][NMeS](Propyl)[Sar][hPhe(3-Cl-4-CF3)]P[Ac5c][NMeGly(cPent)][NMeD]-{3Oxa8azabicyclo(3.2.1)octane}; lactam N-11), for which the IC50 amounted to 2.4 nM.

In the case of `CC[C@H](C)[C@@H]1NC(=O)[C@H](CC(C)C)N(C)C(=O)C[C@@H](C(=O)N2CCCCC2)N(C)C(=O)[C@H]([C@@H](C)CC)N(C)C(=O)C2(CCCC2)NC(=O)[C@@H]2CCCN2C(=O)[C@H](CCc2ccc(C(F)(F)F)c(F)c2)NC(=O)CN(C)C(=O)[C@H](C2CCCC2)N(C)C(=O)[C@@H]2CCN2C(=O)[C@H](C)N(C)C1=O` [Compound 674] ([NMeL]I[NMeA][Aze][NMeGly(cPent)][Sar][hPhe(3-F,4-CF3)]P[Ac5c][NMeI][NMeD]-Piperidide; lactam N-11), the IC50 was determined as 5.6 nM.

In the case of `CC[C@H](C)[C@@H]1NC(=O)[C@H](CC(C)C)N(C)C(=O)C[C@@H](C(=O)N2CCCCC2)N(C)C(=O)[C@H](C2CCCC2)N(C)C(=O)C2(CCCC2)NC(=O)[C@@H]2CCCN2C(=O)[C@H](CCc2ccc(C(F)(F)F)c(Cl)c2)NC(=O)CN(C)C(=O)[C@H](C2CCCC2)N(C)C(=O)[C@@H]2CCN2C(=O)[C@H](C)N(C)C1=O` [Compound 182] ([NMeL]I[NMeA][Aze][NMeGly(cPent)][Sar][hPhe(3-Cl-4-CF3)]P[Ac5c][NMeGly(cPent)][NMeD]-Piperidide; lactam N-11), the IC50 was 0.98 nM.
